Patent US11858913B2, “Bicyclic pyridazinones and methods of use thereof” (ALIGOS THERAPEUTICS, INC., priority 2020, dated 2024)

Molecular target: T1, human thyroid receptor beta ligand-binding domain (LBD) (Homo sapiens, UniProt P10828)
T1 construct: purchased Invitrogen
T1 sequence (P10828 217-461 limits assumed): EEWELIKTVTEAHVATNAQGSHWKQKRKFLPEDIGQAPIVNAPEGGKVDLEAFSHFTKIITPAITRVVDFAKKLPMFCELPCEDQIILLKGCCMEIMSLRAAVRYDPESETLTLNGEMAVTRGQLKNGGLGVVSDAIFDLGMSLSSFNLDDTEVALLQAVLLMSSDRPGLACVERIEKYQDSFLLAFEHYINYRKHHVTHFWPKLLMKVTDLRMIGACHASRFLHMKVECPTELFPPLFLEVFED
Assay: THR Biochemical Assay (Assay 1): TR-FRET thyroid receptor beta coactivator assay
Settings: GST-tagged THR-beta LBD 1 nM, fluorescein SRC2-2 coactivator peptide 200 nM, 1 hr at rt, TR-FRET ratio 520:495; read-out: Assay 1 (EC50, THR-beta agonist activity)
Text: The TR-FRET thyroid receptor beta coactivator assay was used with slight, optimized modifications of the manufacturer's protocol (Invitrogen). The assay uses a terbium-labeled anti-GST antibody, a glutathione-S-transferase (GST) tagged human thyroid receptor, beta or alpha, ligand-binding domain (LBD), and a fluorescein labeled SRC2-2 coactivator peptide. The antibody interacts with the LBD, where the agonist also binds, resulting in increased affinity for the SRC2-2 coactivator peptide causing energy transfer […] the acceptor fluorophore and a FRET emission shift from 495 to 520 nm. The energy transfer was detected as an increase in the fluorescence emission of the fluorescein acceptor, and a decrease in the fluorescence emission of the terbium donor. The assay was performed in a 384-well black plate in a final volume of 20 μL. Serial dilution of various test agonists was performed in DMSO (1% final DMSO concentration) and added to the test plate. […] The TR-FRET was then measured on a Victor multilabel reader (Perkin Elmer) using an excitation wavelength of 340 nm with emission filters of 495 nm and 520 nm. The assay was quantified by expressing a ratio (520:495) of the intensities, and the resulting activation curves; EC50 values were generated using a sigmoidal dose response (variable slope) equation in GraphPad™ Prism 8.0.

Row | SMILES | EC50 [nM]
1 | CC1CCc2c(Oc3c(Cl)cc(-n4nc(N)c(=O)[nH]c4=O)cc3Cl)n[nH]c(=O)c21 (single isomer, unassigned) [Compound 1b, 6-amino-2-(3,5-dichloro-4-((7-methyl-1-oxo-2,5,6,7-tetrahydro-1H-cyclopenta[d]pyridazin-4-yl)oxy)phenyl)-1,2,4-triazine-3,5(2H,4H)-dione] | 50 to 250
2 | CC1CCc2c(Oc3c(Cl)cc(-n4nc(N)c(=O)[nH]c4=O)cc3Cl)n[nH]c(=O)c21 (single isomer, unassigned) [Compound 1a, 6-amino-2-(3,5-dichloro-4-((7-methyl-1-oxo-2,5,6,7-tetrahydro-1H-cyclopenta[d]pyridazin-4-yl)oxy)phenyl)-1,2,4-triazine-3,5(2H,4H)-dione] | < 50
